Results as given in US20240285586A1, “METHODS FOR TREATING BACTERIAL CELL POPULATIONS” (THE HONG KONG POLYTECHNIC UNIVERSITY, priority 2021, published 2024).
“And” between values parts separate entries of the source, which are not always exact repeats. Identical values can stand only once. Residues, ends and D or L forms follow the SMILES beside them. *: point of attachment. βNA = c1ccc2cc(N*)ccc2c1

Tests used:
[1] = system: Escherichia coli BW25113; test: Effect of PAβN on bacterial growth rate; assay type: cell-based; settings: PAβN 100 μM in LB broth
Protocol: Assessment of effect of PAβN on bacterial growth rate. The overnight culture of the Escherichia coli BW25113 strain was diluted 1:100 in LB Broth, followed by addition of 100 μM PAβN; a sample in which only saline was added was included as negative control. OD600 value was tested at different time points.

[2] = general statement; cited from earlier work
[3] = system: S. typhimurium; test: Starvation-induced tolerance assay, S. typhimurium; assay type: cell-based
Protocol: (§1) Tolerance assay. […] Standard serial dilution and plating on LB agar was performed before and after ampicillin treatment for 4 hrs, 2 days, 4 days and 6 days to determine the fraction of the test population that survived at different time points during the course of treatment.
(§2) Standard serial dilution and plating on LB agar was performed on samples collected every 24 hrs to assess changes in the size of the sub-population that survived during the treatment process.
(§3) Upon reaching the exponential phase, bacteria were washed and re-suspended in saline (0.9% NaCl), and then incubated at 37° C. under constant shaking (250 rpm/min) for 24 hrs. […] Standard serial dilution and plating on LB agar were performed before and after ampicillin treatment for 4 hrs, 1 day, 2 days and 4 days to determine the fraction of the test population that survived at different time points during the course of treatment.

[4] = system: E. coli BW25113; test: Starvation-induced tolerance assay, wild type E. coli; assay type: cell-based, Escherichia coli; settings: for size of the E. coli population: within 24 hrs
Protocol: as §1, §2, §3

[5] = system: S. aureus; test: Starvation-induced tolerance assay, S. aureus; assay type: cell-based, Staphylococcus aureus
Protocol: as §1, §2, §3

[6] = system: E. coli wild type strain; test: Assessment of efflux activity (Nile Red); assay type: cell-based, Escherichia coli; settings: CCCP 100 μM, within 30 mins, increased from ~6500 RFU
Protocol: Assessment of efflux activity. A10-mL portion of bacterial population which had been subjected to 24 hrs starvation was centrifuged at 6000×g for 5 mins at room temperature. The pellet was re-suspended in PBS containing 1 mM MgCl2(PPB) and adjusted to OD600 0.2. Nile Red which fluoresces only weakly in aqueous solutions but becomes strongly fluorescent in nonpolar environments was added to produce a final concentration of 5 μM followed by incubation at 37° C. for 30 mins, with 250 rpm shaking. CCCP was then added to produce a final concentration of 100 μM; fluorescence was measured for a period of 30 mins by a Clariostar Microplate Reader at an excitation wavelength of 544±10 nm and an emission wavelength of 650±10 nm.

[7] = system: Gram negative strains; test: Minimal inhibitory concentration, Gram negative strains; assay type: cell-based; settings: all Gram negative test strains
From the text: Determination of Minimal Inhibitory Concentrations (MICs).

[8] = system: K. pneumoniae; test: Starvation-induced tolerance assay, K. pneumoniae; assay type: cell-based, Klebsiella pneumoniae
Protocol: as §1, §2, §3

[9] = system: A. baumannii; test: Starvation-induced tolerance assay, A. baumannii; assay type: cell-based, Acinetobacter baumannii
Protocol: as §1, §2, §3

[10] = system: E. coli BW25113 wild type; test: Antibiotic accumulation assay (BOCILLIN, flow cytometry), wild type; assay type: cell-based, Escherichia coli; settings: 24 hrs starvation, BOCILLIN 10 μg/mL
Protocol: (§4) Antibiotic accumulation assay. The overnight bacteria culture was diluted 100-fold in LB broth and cultivated for about 1 hr until the OD600 value reached 0.2 (exponential phase). Aliquots of this exponential phase culture were washed and re-suspended in saline, cultured at 37° C. under constant shaking (250 rpm) for 24 hrs, followed by addition of CCCP (1 μM). After 5 mins, BOCILLIN™ FL Penicillin (10 μg/mL) was added and incubated at 37° C. with shaking at 250 rpm for 1 hr. Upon washing twice with PBS, fluorescence signal was measured by flow cytometry CytoFLEX (Beckman). Microorganisms were identified by FSC (forward scatter) and SSC (side scatter) parameters. Fluorescence intensity was measured at 488-nm excitation, 525-nm emission.

[11] = system: E. coli J53 (mcr-1); test: MIC of colistin in presence and absence of compound, broth dilution; assay type: cell-based, Escherichia coli; settings: antibiotic resistant E. coli (FIG. 20)
[12] = system: S. typhimurium PY1; test: Mouse peritonitis infection (tolerance sepsis) model; assay type: in vivo
Protocol: NIH male mice of about six-weeks-old with body weight of ˜20 g were used, 6 mice per group. The animals were allowed to acclimate to the housing facility for 5 days. The mice were made neutropenic by administering 150 mg/kg cyclophosphamide 3 days and 1 day before infection. Different amounts of S. typhimurium strain PY01 (2.8×10^5 CFU, 7.6×10^5 CFU or 1.5×10^6 CFU) were inoculated into the animals via intraperitoneal injection. The mice were subjected to ceftazidime (20 mg/kg), econazole (20 mg/kg) or ceftazidime combining econazole treatment (i.p.) 24 h after inoculation, at 12 hrs intervals for 72 hrs randomly. The mortality rate of the test mice was recorded every 12 hrs. After 72 h of treatment, live mice were euthanized and subjected to peritoneal washes which involved injection of 2 mL of saline into the intraperitoneal space, followed by abdominal massage. The abdomen was then cut open and 200 μL of peritoneal fluid were collected and serially diluted in saline. A 100 μL portion of each dilution was spread on LB plates, followed by incubation overnight at 37° C. Colonies were counted to determine the bacterial load in the test samples, which were expressed as CFU/ml. Statistical analysis and ethic approval were the same as described above.

[13] = system: E. coli ΔpspA; test: Antibiotic accumulation assay (BOCILLIN, flow cytometry), ΔpspA; assay type: cell-based, Escherichia coli; settings: 24 hrs starvation, no CCCP
Protocol: as §4

[14] = system: E. coli; test: Membrane potential assay DiSC3(5), E. coli; assay type: cell-based, Escherichia coli; settings: valinomycin 1 μM, positive control, exponential phase
Protocol: Membrane potential assay. The transmembrane electrical potential was measured by using a membrane potential-sensitive probe, DiSC3(5). Bacterial population in either the exponential phase (OD600 of 0.2) or under 24 hrs starvation (resuspended in saline) were collected by centrifugation (6000×g, 2 mins), washed twice and re-suspended in PBS (pH 7.4), and then adjusted to OD600 of 0.2. KCl and DiSC3(5) were added until final concentration of 100 mM and 1 μM was respectively reached, followed by incubation at room temperature for 25 mins in the dark to allow the dye to penetrate through the outer membrane and produce a quenching effect. […] The fluorescence reading was monitored by using a Clariostar Microplate Reader (BMG LABTECH) at an excitation wavelength of 622±10 nm and an emission wavelength of 670±10 nm for 10 mins. Upon depolarization, the dye was rapidly released into the medium, resulting in dequenching and facilitating detection fluorometrically. […] The sample preparation method is same as that prior to testing with the Microplate Reader except for the last step. Briefly, cells were washed with PBS three times before confocal observation to remove extracellular DiSC3(5) dye. […] DiSC3(5) was excited by 638 nm laser and fluorescence was detected by HyD detector at emission wavelength 675±25 nm. The images were acquired and analyzed by the Leica Application Suite X (LAS X) software. […]

[15] = system: E. coli ΔtolC mutant; test: Starvation-induced tolerance assay, ΔtolC knockout; assay type: cell-based, Escherichia coli; settings: ampicillin for six days
Protocol: as §1

[16] = system: E. coli BW25113::ΔndhΔnuoI; test: Starvation-induced tolerance assay, ΔndhΔnuoI double knockout; assay type: cell-based, Escherichia coli; settings: ampicillin for six days
Protocol: as §1

[17] = system: E. coli BW25113::ΔnuoI; test: Starvation-induced tolerance assay, ΔnuoI knockout; assay type: cell-based, Escherichia coli; settings: 24 hrs starvation, then six days of ampicillin treatment
Protocol: as §1

[18] = system: E. coli BW25113 ΔpspA; assay type: cell-based, Escherichia coli
Protocol: as §1, §2

[19] = system: E. coli tolerant cells; test: Scanning electron microscopy of tolerant cells; assay type: cell-based, Escherichia coli; settings: ampicillin 100 μg/ml and 1000 μg/ml, 24 hours
Protocol: Electron microscopy analysis. E. coli which had been subjected to starvation for 24 hours were treated with econazole alone, ampicillin alone and a combination of econazole and ampicillin for 24 hours, followed by examination under scanning electron microscopy (SEM). Cells treated with saline were included as negative control. Briefly, bacterial cells were fixed in 0.4% polyoxymethylene overnight and then in Osmium tetroxide (OsO4) for 2 hrs, followed by washing for three times with PBS. The cells were then dehydrated using pure ethanol, and infiltrated and embedded in Spurr resin for examination by SEM.

[20] = system: E. coli BW25113 and its ΔpspA derivative; test: Membrane permeability assay (SYTOX Green); assay type: cell-based, Escherichia coli; settings: colistin, positive control; similar in wild type and ΔpspA
Protocol: Membrane permeability assay. The membrane permeability or integrity of the test organisms was measured using SYTOX Green (ThermoFisher), which can enter the cell through damaged cell membrane and bind to nucleic acid, generating fluorescence signal. E. coli BW25113 and its ΔpspA derivative at a concentration of OD600 of 0.2, which had been subjected to 24 hrs starvation, were collected by centrifugation (6000×g, 2 mins), washed twice and re-suspended in saline. SYTOX Green was then added to give a final concentration of 1 μM, followed by incubation for 30 min in the dark at room temperature. The relative fluorescence signal in the wild type and ΔpspA strain was measured by a Cary Eclipse Fluorescence Spectrophotometer (Agilent), with an excitation wavelength of 488±10 nm and an emission wavelength of 523±10 nm.

[21] = CCCP 100 μM, absence of ampicillin
[22] = low concentration of CCCP + 10×MIC ampicillin

With `N=C(N)NCCC[C@H](NC(=O)[C@@H](N)Cc1ccccc1)C(=O)Nc1ccc2ccccc2c1` [PAβN] (H-Phe-Arg-βNA) the “effect on bacterial growth” value [1] was “did not exert any negative effect on bacterial growth”.

For `N#CC(C#N)=NNc1cccc(Cl)c1` [CCCP, carbonyl cyanide-m-chlorophenylhydrazone], the “toxicity or safety in human” value [2] is given as “toxic to human”, the “eradication of tolerant cells” value [3, 21] is given as “could eradicate tolerant bacteria cells” and the “effect on phenotypic ampicillin tolerance” value [3, 22] is given as “sufficient to suppress or even completely abolish phenotypic ampicillin tolerance”. For the same compound, the population size ([4]; CCCP 1 μM + ampicillin, […], after 24 hrs starvation) was about 80 cells/mL, the tolerance to ciprofloxacin ([4]; CCCP 1 μM + ciprofloxacin 0.5 μg/mL) was “not affected” and the “phenotypic tolerance to gentamicin upon PMF dissipation” value ([4]; CCCP 1 μM + gentamicin 10 μg/mL) was “cannot be maintained”. The “size of the surviving population” value ([4]; CCCP 1 μM alone, […], after 24 hrs starvation) was “remained unchanged”, the “size of the E. coli population” value ([4]; CCCP 100 μM + ampicillin) was ~2×10^4 cells/mL and the “size of the E. coli population” value ([4]; CCCP 100 μM alone, from ~2.5×10^7 cells/mL) was ~5×10^5 cells/mL. For the same compound, the “time to eradication of the entire antibiotic tolerant population” value ([4]; CCCP 100 μM with ampicillin) was at most 48 h, the “time to eradication of the entire antibiotic tolerant population” value ([4]; CCCP 100 μM without ampicillin) was at most 48 h and the “killing effect compared with CCCP alone” value ([4]; CCCP (100 μM) + ampicillin) was “significantly stronger”. For the same compound, the “entire tolerant cell population” value ([4]; CCCP (concentration not stated) and ampicillin, six days) was about 50 cells/mL, the “killing of bacterial tolerant cells” value ([4]; CCCP alone (100 μM)) was “kill bacterial tolerant cells” and the “eradication of tolerant cells” value [5, 21] was “could eradicate tolerant bacteria cells”. The “effect on phenotypic ampicillin tolerance” value [5, 22] was “sufficient to suppress or even completely abolish phenotypic ampicillin tolerance”, the “Nile Red fluorescence intensity” value [6] was about 10000 RFU and the MIC [7] was over 160 µM. For the same compound, the “eradication of tolerant cells” value [8, 21] was “could eradicate tolerant bacteria cells”, the “effect on phenotypic ampicillin tolerance” value [8, 22] was “sufficient to suppress or even completely abolish phenotypic ampicillin tolerance” and the “eradication of tolerant cells” value [9, 21] was “could eradicate tolerant bacteria cells”. For the same compound, the “effect on phenotypic ampicillin tolerance” value [9, 22] was “sufficient to suppress or even completely abolish phenotypic ampicillin tolerance” and the “cells exhibiting high BOCILLIN intensity (>10^3 RFU)” value ([10]; CCCP (1 μM) treatment) was 97.86%.

In the case of `C=CCOC(Cn1ccnc1)c1ccc(Cl)cc1Cl` (stereo not drawn) [enilconazole], the “effect of co-administration with colistin” value (“effect of co-administration” for short) [11] is reported as “bactericidal synergistic effect”.

With `CC(C)(O/N=C(\C(=O)N[C@@H]1C(=O)N2C(C(=O)[O-])=C(C[n+]3ccccc3)CS[C@H]12)c1csc(N)n1)C(=O)O` [ceftazidime] the infected mice rescued ([12]; ceftazidime alone 20 mg/kg, 1.5×10^6 CFU) was 10%, the “protection of the test animals from death” value ([12]; ceftazidime alone 20 mg/kg, inoculation of 7.6×10^5 CFU) was “could protect the test animals from being killed” and the “rate of eradication of PY1 tolerant sub-population compared with the econazole and ceftazidime combination” value ([12]; ceftazidime only 20 mg/kg, lower inoculum (FIG. 19F), P=0.0004) was “significantly slower”. For the same compound, the “size of the tolerant population” value ([3]; ceftazidime alone (100 μg/ml), 96 hrs (FIG. 16F)) was ~1.4×10^7 CFU/mL.

With `Cc1cc(C)n2c1C=C1C=CC(CCC(=O)Nc3ccc(OCC(=O)N[C@@H]4C(=O)N5[C@@H]4SC(C)(C)[C@@H]5C(=O)[O-])cc3)=[N+]1[B-]2(F)F.[Na+]` [BOCILLIN] the “cells that exhibited high BOCILLIN level” value [13] was 18.52% and the “cells exhibiting high BOCILLIN intensity (>10^3 RFU)” value ([10]; absence of CCCP) was 10.45%.

With `CC(C)[C@@H]1NC(=O)[C@H](C)OC(=O)[C@@H](C(C)C)NC(=O)[C@@H](C(C)C)OC(=O)[C@H](C(C)C)NC(=O)[C@H](C)OC(=O)[C@@H](C(C)C)NC(=O)[C@@H](C(C)C)OC(=O)[C@H](C(C)C)NC(=O)[C@H](C)OC(=O)[C@@H](C(C)C)NC(=O)[C@@H](C(C)C)OC1=O` [valinomycin] the “effect on membrane potential (DiSC3(5) fluorescence)” value [14] was “caused dissipation of membrane potential”.

With `Clc1ccc(C(Cn2ccnc2)OCc2ccsc2Cl)c(Cl)c1` (stereo not drawn) [tioonazole] the “effect of co-administration” value [11] was “bactericidal synergistic effect”.

With `N#C/C(=C1/SC[C@@H](c2ccc(Cl)cc2Cl)S1)n1ccnc1` [lulionazole] the “effect of co-administration” value [11] was “bactericidal synergistic effect”.

For `CC1(C)S[C@@H]2[C@H](NC(=O)[C@H](N)c3ccccc3)C(=O)N2[C@H]1C(=O)O` [ampicillin], the “size of the tolerant population” value [15] was ~5×10^4 cells/mL, the “reduction of the tolerant population” value [16] was ~10^4 fold and the “size of the tolerant population” value [16] was about 200 cells/mL. The “size of the antibiotic tolerant sub-population” value ([4]; wild type, 24 hrs starvation, then ampicillin 100 μg/mL (~10×MIC) for 6 days) was 4×10^6 cells/mL and ~2.5×10^7 cells/mL, the population size [17] was ~3.5×10^5 cell/mL and the “size of the antibiotic tolerant sub-population” value ([18]; 24 hrs starvation, then ampicillin 100 μg/mL for 6 days) was ~3×10^5 cells/mL. The “tolerant sub-population relative to that of wild type” value ([18]; after 6 days of ampicillin treatment) was 10% and the “cell morphology under SEM” value [19] was “slight shrinkage in the pole areas”.

For colistin, the “effect on membrane permeability (SYTOX Green)” value [20] was “cause membrane damage and an eventual increase in membrane permeability”.

In the case of `Clc1ccc(COC(Cn2ccnc2)c2ccc(Cl)cc2Cl)c(Cl)c1` (stereo not drawn) [miconazole], the “effect of co-administration” value [11] is reported as “bactericidal synergistic effect”.

For `Clc1ccc(C(Cn2ccnc2)OCc2csc3c(Cl)cccc23)c(Cl)c1` (stereo not drawn) [sertaconazole], the “effect of co-administration” value [11] was “bactericidal synergistic effect”.
